Measurements published in ChEMBL document CHEMBL3774353, “Efficacy of peptide nucleic acid and selected conjugates against specific cellular pathologies of amyotrophic lateral sclerosis” (Bioorg Med Chem, 2016).

Target: Superoxide dismutase [Cu-Zn] (Homo sapiens) (UniProt P00441)
Assay: Binding affinity to human EGFP-tagged SOD1 A4V mutant mRNA expressed in mouse Neuro2a cells assessed as reduction in cells bearing inclusions at 25 uM measured 72 hrs post transfection by Hoechst33342 staining-based epifluorescence microscopic analysis (reference value: 19 to 21%)
Type: cell-based
Design: scale not given: the % may be the effect or the level left

Chain of Superoxide dismutase [Cu-Zn] (Homo sapiens) (P00441 whole entry): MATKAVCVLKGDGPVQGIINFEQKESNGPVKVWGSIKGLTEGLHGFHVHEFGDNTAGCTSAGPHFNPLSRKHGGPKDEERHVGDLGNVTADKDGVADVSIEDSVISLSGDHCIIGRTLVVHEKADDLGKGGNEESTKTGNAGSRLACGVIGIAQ

In the case of `CC(=O)Oc1c(C)c(C)c2c(c1Cn1cc(CCC(=O)NCCN(CC(=O)NCCN(CC(=O)NCCN(CC(=O)NCCN(CC(=O)NCCN(CC(=O)NCCN(CC(=O)NCCN(CC(=O)NCCN(CC(=O)NCCN(CC(N)=O)C(=O)Cn3cnc4c(=O)[nH]c(N)nc43)C(=O)Cn3ccc(N)nc3=O)C(=O)Cn3cnc4c(N)ncnc43)C(=O)Cn3ccc(N)nc3=O)C(=O)Cn3cnc4c(=O)[nH]c(N)nc43)C(=O)Cn3cnc4c(N)ncnc43)C(=O)Cn3ccc(N)nc3=O)C(=O)Cn3cc(C)c(=O)[nH]c3=O)C(=O)Cn3cc(C)c(=O)[nH]c3=O)nn1)CCC(C)(CCCC(C)CCCC(C)CCCC(C)C)O2` (centres undefined), the Activity is reported as 17%.
`CCOC(=O)C1(C)CCc2c(Cn3cc(CCC(=O)NCCN(CC(=O)NCCN(CC(=O)NCCN(CC(=O)NCCN(CC(=O)NCCN(CC(=O)NCCN(CC(=O)NCCN(CC(=O)NCCN(CC(=O)NCCN(CC(N)=O)C(=O)Cn4cnc5c(=O)[nH]c(N)nc54)C(=O)Cn4ccc(N)nc4=O)C(=O)Cn4cnc5c(N)ncnc54)C(=O)Cn4ccc(N)nc4=O)C(=O)Cn4cnc5c(=O)[nH]c(N)nc54)C(=O)Cn4cnc5c(N)ncnc54)C(=O)Cn4ccc(N)nc4=O)C(=O)Cn4cc(C)c(=O)[nH]c4=O)C(=O)Cn4cc(C)c(=O)[nH]c4=O)nn3)c(OC(C)=O)c(C)c(C)c2O1` (centres undefined) gave an Activity of 14%.
Work on `Cc1c(C)c2c(c(C)c1O)CCC(C)(C(=O)NCCN(CC(=O)NCCN(CC(=O)NCCN(CC(=O)NCCN(CC(=O)NCCN(CC(=O)NCCN(CC(=O)NCCN(CC(=O)NCCN(CC(=O)NCCN(CC(N)=O)C(=O)Cn1cnc3c(=O)[nH]c(N)nc31)C(=O)Cn1ccc(N)nc1=O)C(=O)Cn1cnc3c(N)ncnc31)C(=O)Cn1ccc(N)nc1=O)C(=O)Cn1cnc3c(=O)[nH]c(N)nc31)C(=O)Cn1cnc3c(N)ncnc31)C(=O)Cn1ccc(N)nc1=O)C(=O)Cn1cc(C)c(=O)[nH]c1=O)C(=O)Cn1cc(C)c(=O)[nH]c1=O)O2` (centres undefined) yielded an Activity of 16%.
`O=C(CS)N[C@@H]1CCCC[C@H]1NC(=O)CS` (racemic) gave an Activity of 14%.
